The text below walks through data of US20040106626A1, “6-Membered unsaturated heterocyclic compounds useful for selective inhibition of the coagulation cascade” (Pharmacia Corporation, priority 2001, published 2004).

Where a name gives a salt, the structure may show the parent alone.

Assay type in all cases: biochemical
One experiment addresses T1, Human thrombin (Homo sapiens, UniProt P00734).
T1 construct: converts prothrombin (II) to thrombin (IIa); purchased Calbiochem, La Jolla, Calif
The experiment can be described thus: Thrombin assay (chromogenic substrate). To be noted: reported only as less than or greater than 30 uM; read-out: Thrombin (II) IC50. The method in brief:
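Chromogenic assay with p-nitroaniline-releasing substrate; thrombin activity read as OD405 nm. Percent inhibition calculated from experimental versus control absorbance.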

Another experiment deals with T2, Human factor Xa (Homo sapiens, UniProt P00742).
T2 construct: purchased Enzyme Research Laboratories, South Bend Ind
Kind of experiment: Xa assay (chromogenic substrate S-2765). The settings on record: reported only as less than or greater than 30 uM; read-out: Factor Xa (II) IC50. An outline of the steps: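 Human factor Xa (0.3 nM) was incubated with inhibitor and 0.15 mM S-2765 in 50 mM Tris-HCl pH 8.0, 100 mM NaCl, 0.1% BSA. After 60 min at RT, p-nitroaniline release was read at 405 nm after background subtraction. Percent inhibition was calculated against uninhibited control.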

Experiment [1] addresses T3, recombinant soluble tissue factor and recombinant human factor VIIa (TF-VIIa) (Homo sapiens, UniProt P08709).
T3 construct: conversion of coagulation factor VII to VIIa by factor Xa; purchased American Diagnostica, Greenwich CT; host or cells: soluble TF made in house in E. coli
The experiment can be described thus: TF-VIIa assay (chromogenic substrate hydrolysis). The settings on record: reported only as less than or greater than 0.1 uM. The method in brief: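 100 nM soluble tissue factor and 2 nM recombinant human factor VIIa added to 0.4 mM N-methylsulfonyl-D-phe-gly-arg-p-nitroaniline with inhibitor in 50 mM Tris-HCl pH 8.0, 5 mM CaCl2, 100 mM NaCl, 0.1% BSA. Percent inhibition from OD405 versus control.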

The test system of experiment [2] is Normal human pooled plasma. The experiment can be described thus: Prothrombin time (PT) clotting assay. To be noted: concentration at which prothrombin time is prolonged by 2x normal, reported as less than or greater than 50 uM. The method in brief: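 Normal human pooled plasma incubated with 100 uM compound or saline, then thromboplastin (human tissue factor) added and clotting time recorded in a coagulation machine. Compounds exceeding 3× normal PT (11.0 s) are titrated to find the concentration doubling PT.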

T3 sequence (P08709 213-466 limits assumed): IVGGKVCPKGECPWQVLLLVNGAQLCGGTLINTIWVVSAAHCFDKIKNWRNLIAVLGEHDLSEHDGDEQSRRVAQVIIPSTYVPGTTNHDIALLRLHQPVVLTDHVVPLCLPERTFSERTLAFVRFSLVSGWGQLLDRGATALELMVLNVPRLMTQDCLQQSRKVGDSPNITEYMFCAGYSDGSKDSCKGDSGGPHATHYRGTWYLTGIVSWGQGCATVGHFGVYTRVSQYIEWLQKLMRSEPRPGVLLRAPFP
T3 sequence (P08709 61-212 limits assumed): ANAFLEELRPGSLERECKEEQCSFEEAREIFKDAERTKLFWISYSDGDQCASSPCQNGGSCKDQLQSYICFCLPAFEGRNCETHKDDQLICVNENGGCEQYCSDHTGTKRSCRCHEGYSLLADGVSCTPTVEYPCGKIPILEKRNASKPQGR
T3 sequence (P13726 33-251 partner limits assumed): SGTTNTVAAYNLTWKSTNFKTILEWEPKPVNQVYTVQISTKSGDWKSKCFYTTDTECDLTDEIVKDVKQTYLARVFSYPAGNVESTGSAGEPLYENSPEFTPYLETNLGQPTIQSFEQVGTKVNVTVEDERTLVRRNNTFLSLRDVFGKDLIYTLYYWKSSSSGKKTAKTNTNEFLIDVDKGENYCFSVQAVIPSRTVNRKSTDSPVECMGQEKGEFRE
T2 sequence (P00742 235-488 limits assumed): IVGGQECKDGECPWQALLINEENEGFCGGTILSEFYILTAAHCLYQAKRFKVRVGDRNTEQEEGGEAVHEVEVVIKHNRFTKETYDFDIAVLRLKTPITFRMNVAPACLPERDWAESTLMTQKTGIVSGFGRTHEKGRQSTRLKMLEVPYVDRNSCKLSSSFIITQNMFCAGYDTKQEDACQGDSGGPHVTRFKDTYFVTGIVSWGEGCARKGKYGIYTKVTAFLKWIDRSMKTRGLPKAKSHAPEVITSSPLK
T2 sequence (P00742 41-179 limits assumed): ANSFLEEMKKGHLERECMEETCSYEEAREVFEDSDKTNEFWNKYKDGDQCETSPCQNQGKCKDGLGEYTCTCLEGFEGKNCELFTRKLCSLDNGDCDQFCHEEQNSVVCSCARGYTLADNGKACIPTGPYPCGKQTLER

By IC50 is commonly meant the concentration that gives 50% inhibition. `CC(C)Nc1ncc(-c2cc(N)cc(NC(=O)c3ccccc3)c2)n(CC(=O)NCc2ccc(C(=N)N)cc2)c1=O` [Example 109]: the figures for the IC50 (on Human thrombin; on Human factor Xa; in experiment [1]) were below 30 µM, above 30 µM and below 100 nM, respectively. Further, in experiment [2], the “PT (Prothrombin time) 2xPT” value was below 50.0 µM.
With `CC(C)Nc1ncc(-c2cc(N)cc(NCCc3ccccc3)c2)n(CC(=O)NCc2ccc(C(=N)N)cc2)c1=O` [Example 110, N-{4-[amino(imino)methyl]benzyl}-2-[6-{3-amino-5-[(2-phenylethyl)amino]phenyl}-3-(isopropylamino)-2-oxopyrazin-1 (2H)-yl]acetamide trifluoroacetate], the values for the IC50 (at Human thrombin; at Human factor Xa; in experiment [1]) were above 30 µM, above 30 µM and below 100 nM, respectively. Moreover, the “PT (Prothrombin time) 2xPT” value in experiment [2] is below 50.0 µM.
As for `CC(C)Nc1ncc(-c2cc(N)cc(NCCCc3ccccc3)c2)n(CC(=O)NCc2ccc(C(=N)N)cc2)c1=O` [Example 111], the figures for the concentration for half-maximal inhibition (IC50) (on Human thrombin; at Human factor Xa; in experiment [1]) were above 30 µM, above 30 µM and below 100 nM, respectively. Moreover, the “PT (Prothrombin time) 2xPT” value in experiment [2] is below 50.0 µM.
In the case of `CC(C)CC(=O)Nc1cc(N)cc(-c2cnc(NC(C)C)c(=O)n2CC(=O)NCc2ccc(C(=N)N)cc2)c1` [Example 112], the values for the IC50 (at Human thrombin; on Human factor Xa; in experiment [1]) were below 30 µM, above 30 µM and below 100 nM, respectively. The “PT (Prothrombin time) 2xPT” value in experiment [2] is below 50.0 µM.
The matching figures for `CC(C)Nc1ncc(-c2cc(N)cc(NC(=O)Nc3ccccc3)c2)n(CC(=O)NCc2ccc(C(=N)N)cc2)c1=O` [Example 113]: above 30 µM, above 30 µM, below 100 nM and below 50.0 µM.
With `CC(C)Nc1ncc(-c2cc(N)cc(NC(=O)NCc3ccccc3)c2)n(CC(=O)NCc2ccc(C(=N)N)cc2)c1=O` [Example 114], the values for the IC50 (at Human thrombin; at Human factor Xa; in experiment [1]) were above 30 µM, above 30 µM and below 100 nM, respectively. In addition, in experiment [2], the “PT (Prothrombin time) 2xPT” value is below 50.0 µM.
Turning to `CC(C)Nc1ncc(-c2cc(N)cc(C(F)(F)F)c2)n(CC(=O)NCc2cc(O)c(C(=N)N)c(F)c2)c1=O.O=C(O)C(F)(F)F` [Example 116], the IC50 at Human thrombin was above 30 µM; on Human factor Xa, below 30 µM; in experiment [1], above 100 nM. Also, the “PT (Prothrombin time) 2xPT” value in experiment [2] is below 50.0 µM.
Regarding `CC(C)Nc1ncc(-c2cc(N)cc(C(=O)O)c2)n(CC(=O)NCc2ccc(C(=N)N)cc2)c1=O.O=C(O)C(F)(F)F` [Example 118], the half-inhibitory concentration (IC50) at Human thrombin is above 30 µM; on Human factor Xa it was above 30 µM; in experiment [1], below 100 nM. Besides, in experiment [2], the “PT (Prothrombin time) 2xPT” value is below 50.0 µM.
As to `COCCNC(=O)c1cc(N)cc(-c2cnc(NC(C)C)c(=O)n2CC(=O)NCc2ccc(C(=N)N)cc2)c1.O=C(O)C(F)(F)F` [Example 119], the figures for the IC50 (on Human thrombin; on Human factor Xa; in experiment [1]) were below 30 µM, above 30 µM and below 100 nM, respectively. In addition, in experiment [2], the “PT (Prothrombin time) 2xPT” value was below 50.0 µM.
The matching figures for `COc1cc(N)cc(-c2cnc(NC(C)C)c(=O)n2CC(=O)NCc2cc(O)c(C(=N)N)c(F)c2)c1.Cl.Cl` [Example 123]: above 30 µM, above 30 µM, below 100 nM and below 50.0 µM.
In the case of `CC(C)Nc1ncc(-c2cc(N)cc(C(=O)OC(C)C)c2)n(CC(=O)NCc2ccc(C(=N)N)cc2)c1=O.O=C(O)C(F)(F)F` [Example 124, Isopropyl 3-amino-5-[1-[2-({4-[amino(imino)methyl]benzyl}amino)-2-oxoethyl]-5-(isopropylamino)-6-oxo-1,6-dihydropyrazin-2-yl]benzoate], the IC50 at Human thrombin is above 30 µM; on Human factor Xa it was above 30 µM; in experiment [1] it was below 100 nM. The “PT (Prothrombin time) 2xPT” value in experiment [2] is below 50.0 µM.
Consider `CC[C@H](C)NC(=O)c1cc(N)cc(-c2cnc(NC(C)C)c(=O)n2CC(=O)NCc2ccc(C(=N)N)cc2)c1.O=C(O)C(F)(F)F` [Example 127], for which the IC50 was below 30 µM on Human thrombin, above 30 µM on Human factor Xa and below 100 nM in experiment [1]. The “PT (Prothrombin time) 2xPT” value in experiment [2] was below 50.0 µM.
For `CCCC(C)C(=O)Nc1cc(N)cc(-c2cnc(NC(C)C)c(=O)n2CC(=O)NCc2ccc(C(=N)N)cc2)c1.O=C(O)C(F)(F)F.O=C(O)C(F)(F)F` (centres unmarked) [Example 128], in that order: above 30 µM, above 30 µM, below 100 nM and below 50.0 µM.
On to `CCCC(=O)Nc1cc(N)cc(-c2cnc(NC(C)C)c(=O)n2CC(=O)NCc2ccc(C(=N)N)cc2)c1.O=C(O)C(F)(F)F.O=C(O)C(F)(F)F` [Example 130], for which the IC50 is below 30 µM at Human thrombin, above 30 µM at Human factor Xa and below 100 nM in experiment [1]. Moreover, the “PT (Prothrombin time) 2xPT” value in experiment [2] was below 50.0 µM.
For `CCC(C)C(=O)Nc1cc(N)cc(-c2cnc(NC(C)C)c(=O)n2CC(=O)NCc2ccc(C(=N)N)cc2)c1.O=C(O)C(F)(F)F.O=C(O)C(F)(F)F` (centres unmarked) [Example 131], the IC50 was below 30 µM at Human thrombin, above 30 µM at Human factor Xa and below 100 nM in experiment [1]. Moreover, the “PT (Prothrombin time) 2xPT” value in experiment [2] is below 50.0 µM.
For `CC(C)Nc1ncc(-c2cc(N)cc(NC(=O)CC(C)(C)C)c2)n(CC(=O)NCc2ccc(C(=N)N)cc2)c1=O.O=C(O)C(F)(F)F.O=C(O)C(F)(F)F` [Example 133], the IC50 is below 30 µM at Human thrombin, above 30 µM on Human factor Xa and below 100 nM in experiment [1]. Further, the “PT (Prothrombin time) 2xPT” value in experiment [2] is below 50.0 µM.
The matching figures for `CCC(CC)C(=O)Nc1cc(N)cc(-c2cnc(NC(C)C)c(=O)n2CC(=O)NCc2ccc(C(=N)N)cc2)c1.O=C(O)C(F)(F)F.O=C(O)C(F)(F)F` [Example 134]: below 30 µM, above 30 µM, below 100 nM and below 50.0 µM.
Regarding `CC(C)CCC(=O)Nc1cc(N)cc(-c2cnc(NC(C)C)c(=O)n2CC(=O)NCc2ccc(C(=N)N)cc2)c1.O=C(O)C(F)(F)F.O=C(O)C(F)(F)F` [Example 135], the IC50 on Human thrombin is below 30 µM; at Human factor Xa, above 30 µM; in experiment [1], below 100 nM. Moreover, the “PT (Prothrombin time) 2xPT” value in experiment [2] is below 50.0 µM.
As for `CCCC(CCC)C(=O)Nc1cc(N)cc(-c2cnc(NC(C)C)c(=O)n2CC(=O)NCc2ccc(C(=N)N)cc2)c1.O=C(O)C(F)(F)F.O=C(O)C(F)(F)F` [Example 136], the IC50 is below 30 µM on Human thrombin, above 30 µM on Human factor Xa and below 100 nM in experiment [1]. Moreover, the “PT (Prothrombin time) 2xPT” value in experiment [2] is below 50.0 µM.
As for `CCCCC(CC)C(=O)Nc1cc(N)cc(-c2cnc(NC(C)C)c(=O)n2CC(=O)NCc2ccc(C(=N)N)cc2)c1.O=C(O)C(F)(F)F.O=C(O)C(F)(F)F` (centres unmarked) [Example 137], the results for the IC50 (on Human thrombin; at Human factor Xa; in experiment [1]) were below 30 µM, above 30 µM and below 100 nM, respectively. The “PT (Prothrombin time) 2xPT” value in experiment [2] is below 50.0 µM.
Consider `CC(CC(=O)Nc1cc(N)cc(-c2cnc(NC(C)C)c(=O)n2CC(=O)NCc2ccc(C(=N)N)cc2)c1)CC(C)(C)C.O=C(O)C(F)(F)F.O=C(O)C(F)(F)F` (centres unmarked) [Example 139], for which the IC50 on Human thrombin was below 30 µM; on Human factor Xa, above 30 µM; in experiment [1], below 100 nM. Further, the “PT (Prothrombin time) 2xPT” value in experiment [2] is below 50.0 µM.
The matching figures for `CC(C)Nc1ncc(-c2cc(N)cc(NC(=O)[C@H]3C[C@@H]3c3ccccc3)c2)n(CC(=O)NCc2ccc(C(=N)N)cc2)c1=O.O=C(O)C(F)(F)F.O=C(O)C(F)(F)F` [Example 140]: below 30 µM, above 30 µM, below 100 nM and below 50.0 µM.
For the compound `CC(C)Nc1ncc(-c2cc(N)cc(NC(=O)CC3CCCC3)c2)n(CC(=O)NCc2ccc(C(=N)N)cc2)c1=O.O=C(O)C(F)(F)F.O=C(O)C(F)(F)F` [Example 141], the IC50 is below 30 µM at Human thrombin, above 30 µM on Human factor Xa and below 100 nM in experiment [1]. Further, in experiment [2], the “PT (Prothrombin time) 2xPT” value was below 50.0 µM.
For `CC(C)Nc1ncc(-c2cc(N)cc(NC(=O)c3ccc(N(C)C)cc3)c2)n(CC(=O)NCc2ccc(C(=N)N)cc2)c1=O.O=C(O)C(F)(F)F.O=C(O)C(F)(F)F` [Example 142], in that order: above 30 µM, above 30 µM, below 100 nM and below 50.0 µM.
Take `CCC(C(=O)Nc1cc(N)cc(-c2cnc(NC(C)C)c(=O)n2CC(=O)NCc2ccc(C(=N)N)cc2)c1)c1ccccc1.O=C(O)C(F)(F)F.O=C(O)C(F)(F)F` (centres unmarked) [Example 143]: the IC50 at Human thrombin was below 30 µM; at Human factor Xa it was above 30 µM; in experiment [1] it was below 100 nM. Further, the “PT (Prothrombin time) 2xPT” value in experiment [2] was below 50.0 µM.
On to `CC(C)Nc1ncc(-c2cc(N)cc(NC(=O)C3CC3)c2)n(CC(=O)NCc2ccc(C(=N)N)cc2)c1=O.O=C(O)C(F)(F)F.O=C(O)C(F)(F)F` [Example 144], for which the IC50 at Human thrombin was above 30 µM; on Human factor Xa it was above 30 µM; in experiment [1], below 100 nM. Moreover, the “PT (Prothrombin time) 2xPT” value in experiment [2] is below 50.0 µM.
